Assay [1] has as its target T1, Phosphodiesterase 7 (Homo sapiens, UniProt Q13946+Q9NP56). Briefly: Inhibition of human Phosphodiesterase 7 of HUT-78 cells. It counts as cell-based.
Assay [2] addresses T2, Phosphodiesterase 3 (Homo sapiens) (UniProt Q14432+Q13370). Briefly: Inhibition of guinea pig Phosphodiesterase 3 at 10 uM. Format: protein assay. Particulars: Cavia porcellus, target entry is the homologue from another species.
The target of assay [3] is T3, Phosphodiesterase 4 (Homo sapiens) (UniProt P27815+Q08499+Q07343+Q08493). Briefly: Inhibition of guinea pig Phosphodiesterase 4 at 10 uM. Format: protein assay. The settings on record: Cavia porcellus, target entry is the homologue from another species.
Assay [4] has as its target T1, Phosphodiesterase 7. Briefly: Inhibition of human Phosphodiesterase 7 of HUT-78 cells at 10 uM. Format: cell-based.
In assay [5] the target is T2, Phosphodiesterase 3 (Homo sapiens). Briefly: Inhibition of guinea pig Phosphodiesterase 3 (PDE3) at 10 uM. It counts as protein assay. Particulars: Cavia porcellus, target entry is the homologue from another species.
Assay [6] deals with T3, Phosphodiesterase 4 (Homo sapiens). The assay can be described thus: Inhibition of guinea pig Phosphodiesterase 4 at 10 uM (inactive). It counts as protein assay. The settings on record: Cavia porcellus, target entry is the homologue from another species.
The target of assay [7] is T1, Phosphodiesterase 7. The assay can be described thus: Inhibition of human Phosphodiesterase 7 of HUT-78 cells at 10 uM (inactive). Format: cell-based.

Active and inactive are the calls of the source.

T1 sequence (Q13946 whole entry, looked up): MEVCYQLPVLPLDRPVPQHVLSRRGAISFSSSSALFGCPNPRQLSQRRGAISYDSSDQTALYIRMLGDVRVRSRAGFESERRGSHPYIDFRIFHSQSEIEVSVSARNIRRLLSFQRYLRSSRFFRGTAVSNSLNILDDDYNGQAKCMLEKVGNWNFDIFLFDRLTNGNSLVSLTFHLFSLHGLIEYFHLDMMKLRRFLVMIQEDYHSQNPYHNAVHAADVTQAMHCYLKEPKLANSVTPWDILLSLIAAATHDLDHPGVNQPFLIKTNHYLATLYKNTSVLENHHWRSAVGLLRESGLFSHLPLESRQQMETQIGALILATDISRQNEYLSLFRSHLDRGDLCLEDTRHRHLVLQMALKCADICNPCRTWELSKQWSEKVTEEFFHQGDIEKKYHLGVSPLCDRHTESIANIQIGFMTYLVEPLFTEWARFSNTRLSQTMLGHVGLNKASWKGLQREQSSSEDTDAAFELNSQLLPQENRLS
T1 sequence (Q9NP56 whole entry, looked up): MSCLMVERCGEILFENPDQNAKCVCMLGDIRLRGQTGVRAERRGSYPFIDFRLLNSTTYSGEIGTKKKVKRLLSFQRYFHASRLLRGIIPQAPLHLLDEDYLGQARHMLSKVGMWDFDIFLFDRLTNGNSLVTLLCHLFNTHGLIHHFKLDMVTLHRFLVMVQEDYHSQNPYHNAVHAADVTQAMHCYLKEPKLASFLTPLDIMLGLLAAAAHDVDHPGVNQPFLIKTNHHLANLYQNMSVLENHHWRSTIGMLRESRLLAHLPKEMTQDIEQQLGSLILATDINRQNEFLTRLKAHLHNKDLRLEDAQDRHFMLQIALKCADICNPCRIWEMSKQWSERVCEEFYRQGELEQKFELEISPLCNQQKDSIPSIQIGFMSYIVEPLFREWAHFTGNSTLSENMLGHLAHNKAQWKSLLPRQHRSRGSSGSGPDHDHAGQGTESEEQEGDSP

What is called IC50 is the concentration needed to halve the response being measured. Low values mean greater potency, high ones weaker potency. One may read the inhibition as the percentage by which the read-out fell short of the control. Take `Nc1nc(O)c2nc(Br)n(C3CCCc4cccc(Br)c43)c2n1` (centres undefined): the IC50 against Phosphodiesterase 7 [1] came out at 1.31 µM. The inhibition in assay [2] was 14%; in assay [3], 10%.
Turning to `Nc1nc(O)c2nc(Br)n(C3CCc4ccccc43)c2n1` (centres undefined), the results for the inhibition (at Phosphodiesterase 7 [4]; in assay [3]) were 22% and 27%, respectively.
For `Nc1nc(O)c2ncn(C3CCCc4ccccc43)c2n1` (centres undefined) the same measures were 4% and 7%.
On to `COc1ccc2c(c1)C(n1c(Br)nc3c(O)nc(N)nc31)CCC2` (centres undefined), for which the IC50 against Phosphodiesterase 7 [1] amounted to 4.22 µM. The molecule also displayed an inhibition in assay [3] of 20%.
As to `Nc1nc(O)c2nc(Br)n(C3CCCc4ccccc43)c2n1` (centres undefined), the inhibition stood at 30% in assay [5] and 15% in assay [3]. This molecule also came in with an IC50 on Phosphodiesterase 7 [1] of 4.88 µM.
For the molecule `Oc1ncnc2c1ncn2C1CCCc2ccccc21` (centres undefined), the inhibition result (in assay [6]; at Phosphodiesterase 7 [7]) was “inactive” each time.
Regarding `Nc1nc(O)c2nc(Br)n(C3CCCCc4ccc(F)cc43)c2n1` (centres undefined), the inhibition against Phosphodiesterase 7 [4] was determined as 10%; in assay [3] it was 13%.
`Nc1nc(O)c2nc(Br)n(C3CCCc4ccc([N+](=O)[O-])cc43)c2n1` (centres undefined) gave an IC50 at Phosphodiesterase 7 [1] of 2.31 µM. Besides, the inhibition in assay [2] was found to be 19%; in assay [3] it was 42%.
